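Step 1: Grow cells in 96-well plates. Step 2: Expose to compound for 48 hours at 5 concentrations. Step 3: Interpolate endpoints linearly; if unreached, use highest concentration. The concentration for full growth arrest is given as TGI.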
Experiments:
Assay in all cases: NCI tumour cell line growth inhibition, 48 h
MOLT-4 leukemia = tested on: MOLT-4 leukemia
IGROV1 ovarian = tested on: IGROV1 ovarian
UO-31 renal = tested on: UO-31 renal
HOP-62 NSCLC = tested on: HOP-62 NSCLC
SK-MEL-2 melanoma = tested on: SK-MEL-2 melanoma
SW-620 colon = tested on: SW-620 colon
HCT-116 colon = tested on: HCT-116 colon
BT-549 breast = tested on: BT-549 breast
NCI-H460 lung = tested on: NCI-H460 lung
KM12 colon = tested on: KM12 colon

Compound	TGI (MOLT-4 leukemia) [µM]	TGI (IGROV1 ovarian) [µM]	TGI (UO-31 renal) [µM]	TGI (HOP-62 NSCLC) [µM]	TGI (SK-MEL-2 melanoma) [µM]	TGI (SW-620 colon) [µM]	TGI (HCT-116 colon) [µM]	TGI (BT-549 breast) [µM]	TGI (NCI-H460 lung) [µM]	TGI (KM12 colon) [µM]
O=C(/C=C/c1ccccc1)Oc1ccc(C(=O)/C=C/c2ccccc2)cc1	16.8	17.9	15.3	21.6	> 66.1	18.6	14.6	17.7	18.8	15.9
Cc1ccc(C2=CC(=O)OC(C[P+](c3ccccc3)(c3ccccc3)c3ccccc3)(c3ccccc3)O2)cc1 (stereo not drawn)	67	27.4	30.9	34.9	29.2	–	29.2	49.2	43.8	34.3
Cc1nn(-c2ccccc2)c2c1C(c1cc3ccccc3nc1Cl)NC(=O)N2 (stereo not drawn)	–	24.9	28.2	54.4	29.5	36.7	84.6	36.8	> 100	53.1
N#CC(C#N)=C1SC(=Nc2ccccc2)C(=Nc2ccccc2)N1c1ccccc1	11.8	28.9	25.3	> 80.9	44.3	11.5	32.7	21.5	> 31.6	> 53.8
O=C(CCn1ccnc1[N+](=O)[O-])NCCCn1ccnc1[N+](=O)[O-]	> 100	> 100	> 100	> 100	> 100	> 100	> 100	> 100	> 100	> 100
COc1cc(O)c2c(c1)C(=O)c1cc3c(c(O)c1C2=O)C(OC1OC(C)C(OC)C(O)C1OC)C(OC)C(C)(O)C3=O (stereo not drawn)	12.2	6.5	–	44.2	23.5	18.1	14.6	31.6	10.8	15.9
C[C@H](CCC(=O)O)[C@H]1CC[C@H]2[C@@H]3C(=O)C[C@@H]4C[C@H](O)CC[C@]4(C)[C@H]3C[C@H](O)[C@]12C	> 100	> 100	> 100	> 100	> 100	> 100	> 100	> 100	> 100	> 100
COc1ccc(C2c3cn[nH]c3CC3CCCCC32)cc1 (stereo not drawn)	46.1	26.6	29.9	36.8	32.5	35.4	31.7	33.5	30.8	–
C/C(=N\N=C1/C(=O)OC(c2ccccc2)=C1C(=O)c1ccccc1)c1ccc([N+](=O)[O-])cc1	52.7	> 100	> 100	> 100	> 100	> 100	> 100	72.6	> 100	> 100
Cc1c2cc[n+](C)c(C)c2cc2c1[nH]c1ccccc12	75.2	> 100	> 100	37.5	30.5	> 95.1	> 86.1	18.9	26.5	21.1
CCOC(=O)c1cccc(N=Nc2nc[nH]c2/C=C/C(=O)OC)c1	40.2	> 100	> 100	> 100	63.5	> 100	> 100	> 100	53	> 100
COC(=O)C(Cc1ccc2c(c1)CCC2)Cc1ccc2c(c1)CCC2	> 100	> 100	> 100	> 100	> 100	> 100	> 100	> 100	> 100	> 100
CC(=NNC(=S)Nc1ccccc1)c1cccc(C(C)=NNC(=S)Nc2ccccc2)n1	> 30.1	> 50.2	> 52.1	> 100	> 100	> 100	> 100	> 100	> 56.8	> 100
CC(c1ccccc1)N1CCN(C(C)c2ccccc2)CC1 (stereo not drawn)	> 100	> 100	> 100	> 100	> 100	> 100	> 100	> 100	> 100	> 100
O=C(O)CN1CCN2CCCCCN(CC1)CCN(CC(=O)O)CC2	–	> 100	> 100	> 100	> 100	> 100	> 100	> 100	> 100	> 100
NCCCN1c2ccccc2Sc2ccc(Cl)cc21	> 10	> 10	> 10	> 10	> 10	> 7	7.03	> 10	> 7.31	> 6.37
Cc1cc(/N=C/c2ccc(N(C)C)cc2)n(-c2ccccc2)n1	> 100	> 100	> 100	> 100	> 100	> 100	> 100	> 100	> 100	> 100
CCN1CN(c2ccccc2)C2(CCN(CC3COc4ccccc4O3)CC2)C1=O (stereo not drawn)	57.6	> 100	76.6	> 100	30.7	> 100	43.7	34.7	45.4	36.5
O=C(O)[C@H]1CCCN1CP(=O)(O)CN1CCC[C@@H]1C(=O)O	> 100	> 100	> 100	> 100	> 100	> 100	> 100	> 100	> 100	> 100
Cc1c(/C=N\NC(=S)NCCNC(=S)N/N=C\c2c(C)n(C)n(-c3ccccc3)c2=O)c(=O)n(-c2ccccc2)n1C	> 100	–	> 100	> 100	> 100	> 100	> 100	> 100	> 100	> 100
O=[N+]([O-])C(=C(Nc1ccccc1)Nc1ccccc1)C(Cl)=C(Cl)Cl	1.09	27.2	39.6	44.7	28.3	30.9	25.5	29.6	33	> 55.5
COc1ccc(N2C(=O)CC(=O)N(NC(=O)C(C)Oc3ccccc3C)C2=S)cc1 (stereo not drawn)	> 100	> 100	> 100	> 100	> 100	> 100	> 100	> 100	> 100	> 100

Compound	TGI (MOLT-4 leukemia) [µM]	TGI (IGROV1 ovarian) [µM]	TGI (UO-31 renal) [µM]	TGI (HOP-62 NSCLC) [µM]	TGI (SK-MEL-2 melanoma) [µM]	TGI (SW-620 colon) [µM]	TGI (HCT-116 colon) [µM]	TGI (BT-549 breast) [µM]	TGI (NCI-H460 lung) [µM]	TGI (KM12 colon) [µM]
OC[C@H]1O[C@@H]2O[C@@](COCc3ccccc3)([C@H](OCc3ccccc3)[C@H]2O)[C@@H]1OCc1ccccc1	21.9	27	29.4	32.6	32	38.6	30.1	37.2	34.2	32.1
CC1=CCC([C@@](C)(O)CCCC(C)(C)N=C=S)CC1 (stereo partly drawn)	50.5	40.3	26.7	40	33.3	32.6	26.6	33.5	33	29.5
C/C(C[n+]1ccccc1)=N\N=C(N)N	> 100	> 100	> 100	> 100	> 100	> 100	> 100	> 100	> 100	> 100
O=C1CC2(CCC(O)(c3ccc4ccccc4c3)C(C(=O)c3ccc4ccccc4c3)C2)C(=O)c2ccccc2N1 (stereo not drawn)	> 100	> 100	> 100	> 100	> 100	> 100	> 100	> 100	> 100	–
O=C(O)CCNc1ncnc2nc[nH]c12	–	> 100	> 100	> 100	> 100	> 100	> 100	> 100	> 100	> 100
CCNC(=S)NNC(=O)C12CC3CC(CC(C3)C1)C2	> 100	> 100	> 100	> 100	> 100	> 100	> 100	> 100	> 100	> 100
CC(C)c1cc2c(c(O)c1O)[C@@]1(C(=O)O)CCCC(C)(C)[C@@H]1CC2	37.2	36.9	27.4	65.2	41.6	> 100	> 100	28.7	50.9	27
CC(C)SC(=S)Sc1c(Cl)c(Cl)nc(Cl)c1Cl	8.69	20.1	21.2	18.4	22.4	15.9	22.4	34.2	36.6	21.4
O=C1c2cc(-c3ccccc3)cnc2S(=O)(=O)N1c1ccc(Br)cc1	> 100	> 100	> 100	32.2	> 100	> 100	> 100	> 100	75	> 100
CN1CCOC1c1ccccc1O (stereo not drawn)	> 100	> 100	> 100	> 100	> 100	> 100	> 100	> 100	> 100	> 100
O=S(=O)(O)C(CO)c1ccccc1 (stereo not drawn) (tested in a mixture with another compound)	> 100	> 100	> 100	> 100	> 100	> 100	> 100	> 100	> 100	> 100
Oc1cc(Cl)cc2cccnc12	3.98	5.12	> 100	> 100	> 100	19.7	> 23.3	> 91.1	18.6	> 100
N[C@@H](Cc1ccccc1)C(=O)N1CCC[C@@H]1P(=O)(Oc1ccccc1)Oc1ccccc1	> 100	> 100	> 100	> 100	> 100	> 100	> 100	> 100	> 100	> 100
O=[N+]([O-])C(=C(Nc1cccc2cccnc12)Nc1cccc2cccnc12)C(Cl)=C(Cl)Cl	> 100	> 100	> 100	> 100	> 54	> 100	> 100	> 100	> 100	> 100
Cc1cccc(C)c1NC(=O)C(Cc1c[nH]c2ccccc12)NC(=O)OCc1ccccc1 (stereo not drawn)	63.7	73	32.9	> 100	34.4	> 100	> 100	65.3	43.6	57
O=C(O)CN1CCNCCN(CC(=O)O)CCN(CC(=O)O)CCNCC1	> 100	> 100	> 100	> 100	> 100	> 100	> 100	> 100	> 100	> 100
C=C(C(=O)OCC)C(=O)OCC	> 100	> 100	> 100	> 100	> 100	> 100	> 100	> 100	> 100	> 100
CC1(C)OC[C@@H](O)[C@H](C#N)CO1	> 100	–	> 100	> 100	> 100	> 100	> 100	> 100	> 100	> 100
O=C1NC(N2CCOCC2)=N/C1=C\c1ccco1	> 100	> 100	> 100	> 100	> 100	> 100	> 100	> 100	–	> 100
O=c1oc2cc(O)ccc2c(O)c1C(c1ccccc1)c1c(O)c2ccc(O)cc2oc1=O	> 100	> 100	> 100	> 100	> 100	> 100	> 100	> 100	> 100	–
O=C(NCP(=O)(Oc1ccccc1)Oc1ccccc1)OCc1ccccc1	> 100	> 100	> 100	> 100	> 100	> 100	–	> 100	> 100	> 100

Reference: PubChem BioAssay (NCI)
